Test results published in ChEMBL document CHEMBL4613218, “Synthesis, in vitro and in vivo biological evaluation of novel graveolinine derivatives as potential anti-Alzheimer agents” (Bioorg Med Chem, 2020).
Each block holds one compound with its values, some of them ahead of it. Calls of active or inactive are those of the source. The calls are words filed in the database; no cut-off is given here.

Assays:
[1] = biological target: Cholinesterase (Equus caballus, UniProt P81908); assay: Inhibition of equine serum BuChE using butyrylthiocholine chloride as substrate preincubated for 15 mins followed by substrate addition by Ellman's method
[2] = system: HepG2; assay: Cytotoxicity against human HepG2 cells assessed as growth inhibition after 48 hrs by MTT assay; type: cell-based; details: HepG2, 48 h
[3] = biological target: Acetylcholinesterase (Electrophorus electricus, UniProt O42275); assay: Inhibition of electric eel AChE using acetylthiocholine chloride as substrate preincubated for 15 mins followed by substrate addition by Ellman's method
[4] = Cytotoxicity against rat PC12 cells assessed as inhibition of cell viability at 10 uM after 48 hrs by MTT assay relative to control; type: cell-based, PC-12; details: read-out: INH
[5] = biological target: Amyloid-beta precursor protein (Homo sapiens) (UniProt P05067); assay: Inhibition of self-induced human amyloid beta (1 to 42) peptide aggregation at 20 uM measured after 48 hrs by ThT fluorescence assay relative to control
[6] = Selectivity index, ratio of IC50 for electric eel AChE to IC50 for equine serum BuChE
[7] = system: PC-12; assay: Cytotoxicity against rat PC12 cells assessed as growth inhibition after 48 hrs by MTT assay; type: cell-based; details: PC-12, 48 h
[8] = Cytotoxicity against human HepG2 cells assessed as inhibition of cell viability at 10 uM after 48 hrs by MTT assay relative to control; type: cell-based; details: read-out: INH
[9] = Toxicity in scopolamine-induced cognition deficit ICR mouse model assessed as effect on swimming speed at 20 umol/kg, po treated 30 mins prior to scopolamine challenge and measured at 30 mins post-scopolamine challenge on day 15 of probe trial by Morris water maze test; type: organism-based; details: in vivo, 0.5 h
[10] = system: Mus musculus; assay: (§1) Antialzheimer activity against scopolamine-induced cognition impairment ICR mouse model assessed as increase in swimming time in target quadrant at 20 umol/kg, po treated 30 mins prior to scopolamine challenge and measured at 30 mins post-scopolamine challenge on day 15 of probe trial by water maze test; type: functional, organism-based
[11] = system: Mus musculus; assay: as §1, with “deficit” for “impairment”, “number of platform crossings” for “swimming time in target quadrant”, “by Morris” for “by”; type: functional, organism-based
[12] = system: Mus musculus; assay: Antialzheimer activity against scopolamine-induced cognition impairment ICR mouse model assessed as mean escape latency time at 20 umol/kg, po treated 30 mins prior to scopolamine challenge and measured at 30 mins post-scopolamine challenge for 4 days of training trial sessions by Morris water maze test (reference value: 59.8 to 62.2 secs); type: functional
[13] = biological target: Acetylcholinesterase (Torpedo californica) (UniProt P04058); assay: Non-competitive inhibition of pacific electric ray AChE pre-incubated with enzyme for 15 mins followed by acetylthiocholine chloride substrate addition by spectrophotometric method based Lineweaver-Burk plot analysis; details: Tetronarce californica
[14] = system: Mus musculus; assay: as §1, with “path length” for “swimming time”, “by Morris” for “by”; type: functional, organism-based
[15] = biological target: Amyloid-beta precursor protein (Homo sapiens) (UniProt P05067); assay: Inhibition of self-induced human amyloid beta (1 to 42) peptide aggregation assessed as reduction in number of amyloid beta aggregates at 20 uM measured after 48 hrs by TEM analysis
[16] = Toxicity in scopolamine-induced cognition deficit ICR mouse model assessed as effect on total distance travelled at 20 umol/kg, po treated 30 mins prior to scopolamine challenge and measured at 30 mins post-scopolamine challenge on day 15 of probe trial by Morris water maze test; type: organism-based; details: in vivo, 0.5 h

Chain of Cholinesterase (P81908 whole entry): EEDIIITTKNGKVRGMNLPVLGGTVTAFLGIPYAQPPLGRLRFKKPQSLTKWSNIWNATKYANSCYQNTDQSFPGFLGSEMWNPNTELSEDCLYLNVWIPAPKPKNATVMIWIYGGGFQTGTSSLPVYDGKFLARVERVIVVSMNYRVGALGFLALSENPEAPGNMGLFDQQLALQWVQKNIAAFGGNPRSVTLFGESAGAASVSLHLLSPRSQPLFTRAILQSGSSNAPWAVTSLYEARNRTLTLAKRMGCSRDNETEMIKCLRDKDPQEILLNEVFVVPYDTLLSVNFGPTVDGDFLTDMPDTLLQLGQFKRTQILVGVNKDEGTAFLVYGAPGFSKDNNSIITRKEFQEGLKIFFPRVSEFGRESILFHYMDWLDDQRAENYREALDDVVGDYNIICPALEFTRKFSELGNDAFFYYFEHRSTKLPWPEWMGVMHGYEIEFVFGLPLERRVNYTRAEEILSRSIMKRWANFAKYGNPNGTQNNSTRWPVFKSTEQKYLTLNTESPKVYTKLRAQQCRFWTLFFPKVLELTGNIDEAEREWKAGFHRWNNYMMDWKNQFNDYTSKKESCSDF
Chain of Amyloid-beta precursor protein (Homo sapiens) (P05067 whole entry): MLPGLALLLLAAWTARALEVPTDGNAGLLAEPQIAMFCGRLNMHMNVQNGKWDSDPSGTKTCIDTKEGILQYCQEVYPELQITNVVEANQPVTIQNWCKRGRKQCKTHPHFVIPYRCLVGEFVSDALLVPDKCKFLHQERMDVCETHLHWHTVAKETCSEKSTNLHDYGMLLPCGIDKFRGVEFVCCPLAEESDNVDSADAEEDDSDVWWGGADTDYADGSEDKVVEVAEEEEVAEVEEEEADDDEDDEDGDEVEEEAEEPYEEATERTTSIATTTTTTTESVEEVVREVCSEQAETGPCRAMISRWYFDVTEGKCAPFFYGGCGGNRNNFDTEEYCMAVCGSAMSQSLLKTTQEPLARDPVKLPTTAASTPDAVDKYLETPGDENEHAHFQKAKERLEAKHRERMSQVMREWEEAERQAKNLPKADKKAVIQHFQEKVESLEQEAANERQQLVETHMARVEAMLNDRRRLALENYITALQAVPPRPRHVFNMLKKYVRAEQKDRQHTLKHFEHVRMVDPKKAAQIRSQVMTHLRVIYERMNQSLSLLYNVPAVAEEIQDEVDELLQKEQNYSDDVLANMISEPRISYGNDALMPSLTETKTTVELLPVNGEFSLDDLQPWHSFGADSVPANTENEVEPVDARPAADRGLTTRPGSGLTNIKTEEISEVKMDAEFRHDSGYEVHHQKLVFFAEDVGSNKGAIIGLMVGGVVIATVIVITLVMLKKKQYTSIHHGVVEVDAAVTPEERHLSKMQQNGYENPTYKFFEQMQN
Chain of Acetylcholinesterase (O42275 whole entry): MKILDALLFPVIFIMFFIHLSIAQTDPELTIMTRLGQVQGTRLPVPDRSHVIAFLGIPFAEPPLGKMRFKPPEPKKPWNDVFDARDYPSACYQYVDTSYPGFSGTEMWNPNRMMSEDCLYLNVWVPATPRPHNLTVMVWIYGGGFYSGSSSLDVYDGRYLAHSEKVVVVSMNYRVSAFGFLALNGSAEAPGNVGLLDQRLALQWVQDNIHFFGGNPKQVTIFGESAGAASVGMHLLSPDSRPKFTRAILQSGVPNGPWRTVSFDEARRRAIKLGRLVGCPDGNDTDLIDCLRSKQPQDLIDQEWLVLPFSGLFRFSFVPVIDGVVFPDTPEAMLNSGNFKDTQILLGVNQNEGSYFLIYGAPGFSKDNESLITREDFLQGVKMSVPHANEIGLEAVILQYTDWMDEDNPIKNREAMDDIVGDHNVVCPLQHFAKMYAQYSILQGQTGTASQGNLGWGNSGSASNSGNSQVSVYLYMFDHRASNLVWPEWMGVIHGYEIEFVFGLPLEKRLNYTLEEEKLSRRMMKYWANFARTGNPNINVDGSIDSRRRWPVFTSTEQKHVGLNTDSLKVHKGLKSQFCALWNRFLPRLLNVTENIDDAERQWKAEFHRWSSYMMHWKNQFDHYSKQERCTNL
Chain of Acetylcholinesterase (Torpedo californica) (P04058 22-564 limits assumed): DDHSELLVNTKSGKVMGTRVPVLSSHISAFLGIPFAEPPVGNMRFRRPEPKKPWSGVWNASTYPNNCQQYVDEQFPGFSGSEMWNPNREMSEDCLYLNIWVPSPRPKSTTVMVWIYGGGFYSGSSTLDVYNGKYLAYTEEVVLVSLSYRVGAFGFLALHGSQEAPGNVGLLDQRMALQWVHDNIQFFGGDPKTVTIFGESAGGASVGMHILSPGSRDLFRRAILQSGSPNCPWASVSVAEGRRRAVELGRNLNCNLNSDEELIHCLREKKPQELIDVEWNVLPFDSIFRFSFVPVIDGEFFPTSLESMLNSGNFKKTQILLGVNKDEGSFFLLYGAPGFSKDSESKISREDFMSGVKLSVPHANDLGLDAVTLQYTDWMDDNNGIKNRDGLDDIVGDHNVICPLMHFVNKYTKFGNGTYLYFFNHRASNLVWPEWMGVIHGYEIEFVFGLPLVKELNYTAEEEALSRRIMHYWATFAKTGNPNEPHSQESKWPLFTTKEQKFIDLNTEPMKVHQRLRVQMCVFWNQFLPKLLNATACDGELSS

SMILES: c1ccc2c(NCCCN3CCOCC3)cc(-c3ccc4c(c3)OCO4)nc2c1
IC50 [1]: 8.15 µM
IC50 [2]: 17.7 µM
IC50 [3]: 3.22 µM
cytotoxicity at 48 h, 10 µM [4]: < 5%
inhibition [5]: 61.6%
Ratio IC50 [6]: 0.4
IC50 [7]: > 50 µM
cytotoxicity at 48 h, 10 µM [8]: < 5%

SMILES: OCCCCCCNc1cc(-c2ccccc2)nc2ccccc12
IC50 [1]: 2.96 µM
IC50 [2]: 44.2 µM
IC50 [3]: 6.22 µM
cytotoxicity at 48 h, 10 µM [4]: < 5%
inhibition [5]: 29.2%
Ratio IC50 [6]: 2.1
IC50 [7]: > 50 µM
cytotoxicity at 48 h, 10 µM [8]: 12%

SMILES: c1ccc2c(N3CCCC3)cc(-c3ccc4c(c3)OCO4)nc2c1
IC50 [1]: 0.16 µM
IC50 [2]: > 50 µM
Activity [9]: Non-Toxic
IC50 [3]: 0.72 µM
Activity [10]: Active
cytotoxicity at 48 h, 10 µM [4]: < 5%
Activity [11]: Active
inhibition [5]: 62.5%
Time [12]: 48.1 s
inhibition [13]: Active
Ratio IC50 [6]: 4.5
Activity [14]: Active
IC50 [7]: > 50 µM
cytotoxicity at 48 h, 10 µM [8]: < 5%
inhibition [15]: Active
Activity [16]: Non-Toxic

inhibition [15]: Active
SMILES: COc1cc(/C=C/C(=O)CC(=O)/C=C/c2ccc(O)c(OC)c2)ccc1O

SMILES: c1ccc2c(NCCCN3CCCCC3)cc(-c3ccc4c(c3)OCO4)nc2c1
IC50 [1]: 1.45 µM
IC50 [2]: 9.21 µM
IC50 [3]: 4.78 µM
cytotoxicity at 48 h, 10 µM [4]: 71.5%
inhibition [5]: 65.6%
Ratio IC50 [6]: 3.3
IC50 [7]: 7.17 µM
cytotoxicity at 48 h, 10 µM [8]: 43.7%

SMILES: CCCCNc1cc(-c2ccc3c(c2)OCO3)nc2ccccc12
IC50 [1]: 7.85 µM
IC50 [2]: > 50 µM
IC50 [3]: 4.8 µM
cytotoxicity at 48 h, 10 µM [4]: 11.2%
inhibition [5]: 30.6%
Ratio IC50 [6]: 0.61
IC50 [7]: 46.2 µM
cytotoxicity at 48 h, 10 µM [8]: 15.4%

SMILES: OCCCNc1cc(-c2ccccc2)nc2ccccc12
IC50 [1]: > 10 µM
IC50 [2]: > 50 µM
IC50 [3]: > 10 µM
cytotoxicity at 48 h, 10 µM [4]: < 5%
inhibition [5]: 36.8%
IC50 [7]: > 50 µM
cytotoxicity at 48 h, 10 µM [8]: < 5%

SMILES: OCCCCNc1cc(-c2ccccc2)nc2ccccc12
IC50 [1]: 4.31 µM
IC50 [2]: > 50 µM
IC50 [3]: 9.85 µM
cytotoxicity at 48 h, 10 µM [4]: < 5%
inhibition [5]: 40.7%
Ratio IC50 [6]: 2.3
IC50 [7]: > 50 µM
cytotoxicity at 48 h, 10 µM [8]: < 5%

SMILES: COc1cc(-c2ccc3c(c2)OCO3)nc2ccccc12 [GRAVEOLININE]
IC50 [1]: 28.2 µM
IC50 [2]: > 50 µM
IC50 [3]: 36.3 µM
cytotoxicity at 48 h, 10 µM [4]: < 5%
inhibition [5]: 26.9%
Ratio IC50 [6]: 1.3
IC50 [7]: > 50 µM
cytotoxicity at 48 h, 10 µM [8]: 8.76%

SMILES: c1ccc(-c2cc(NCCCN3CCCCC3)c3ccccc3n2)cc1
IC50 [1]: 1.19 µM
IC50 [2]: 25.7 µM
IC50 [3]: > 10 µM
cytotoxicity at 48 h, 10 µM [4]: 11.6%
inhibition [5]: 60.3%
Ratio IC50 [6]: > 8.4
IC50 [7]: 40.5 µM
cytotoxicity at 48 h, 10 µM [8]: 24.1%

SMILES: c1ccc2c(N3CCCCC3)cc(-c3ccc4c(c3)OCO4)nc2c1
IC50 [1]: 2.09 µM
IC50 [2]: > 50 µM
IC50 [3]: > 10 µM
cytotoxicity at 48 h, 10 µM [4]: < 5%
inhibition [5]: 48.5%
Ratio IC50 [6]: > 4.8
IC50 [7]: > 50 µM
cytotoxicity at 48 h, 10 µM [8]: < 5%

SMILES: OCCCNc1cc(-c2ccc3c(c2)OCO3)nc2ccccc12
IC50 [1]: > 10 µM
IC50 [2]: > 50 µM
IC50 [3]: 4.23 µM
cytotoxicity at 48 h, 10 µM [4]: 8.38%
inhibition [5]: 36.6%
Ratio IC50 [6]: < 0.42
IC50 [7]: > 50 µM
cytotoxicity at 48 h, 10 µM [8]: < 5%

SMILES: c1ccc(-c2cc(N3CCCC3)c3ccccc3n2)cc1
IC50 [1]: 0.43 µM
IC50 [2]: 30.9 µM
IC50 [3]: 3.71 µM
cytotoxicity at 48 h, 10 µM [4]: 24.2%
inhibition [5]: 57.7%
Ratio IC50 [6]: 8.6
IC50 [7]: 24.7 µM
cytotoxicity at 48 h, 10 µM [8]: 12.6%

SMILES: OCCCCNc1cc(-c2ccc3c(c2)OCO3)nc2ccccc12
IC50 [1]: 9.78 µM
IC50 [2]: > 50 µM
IC50 [3]: 4.26 µM
cytotoxicity at 48 h, 10 µM [4]: 14.7%
inhibition [5]: 44.1%
Ratio IC50 [6]: 0.44
IC50 [7]: 34.3 µM
cytotoxicity at 48 h, 10 µM [8]: < 5%

SMILES: c1ccc(-c2cc(NCCCN3CCOCC3)c3ccccc3n2)cc1
IC50 [1]: 4.44 µM
IC50 [2]: 30.1 µM
IC50 [3]: > 10 µM
cytotoxicity at 48 h, 10 µM [4]: 12.6%
inhibition [5]: 55.5%
Ratio IC50 [6]: > 2.3
IC50 [7]: 35.2 µM
cytotoxicity at 48 h, 10 µM [8]: 12.7%

SMILES: OCCCCCCNc1cc(-c2ccc3c(c2)OCO3)nc2ccccc12
IC50 [1]: 6.49 µM
IC50 [2]: > 50 µM
IC50 [3]: 4.32 µM
cytotoxicity at 48 h, 10 µM [4]: < 5%
inhibition [5]: 39.4%
Ratio IC50 [6]: 0.67
IC50 [7]: > 50 µM
cytotoxicity at 48 h, 10 µM [8]: < 5%
